Measured values reported in US20080287515A1, “Topical compositions containing metronidazole” (priority 2007, published 2008).
One block for each molecule: values may come before it.

Legend:
[1] = Physical stability test of aqueous metronidazole compositions (crystal formation or precipitation); type: physicochemical; conditions: for Concentration required to obtain a stable aqueous solution of 1.0% metronidazole: as the only solubility enhancing agent
Method: The solubility enhancing effect of the combination of urea and hydroxyalkyl urea in increasing the solubility of metronidazole in the aqueous compositions is evaluated by physical stability of the prepared compositions.
Therefore, the formulations are subject to a physical stability test. The protocol for the stability test is as follows: metronidazole and the solubility enhancing agents are combined with water either at room temperature or elevated temperature while stirring until dissolved. The solutions are permitted to cool to room temperature. Customary auxiliaries and additives may be added to the aqueous solutions containing solubilized metronidazole and solubility enhancing agents. The solutions may be gelled by using the suitable gelling agents. The compositions both in gel or solution form are then packaged in clear glass vials and sealed. The vials are kept at room temperature for 24 hours and monitored for crystal formation or precipitation. After 24 hours, the vials are placed in a refrigerator maintained at a temperature of about 4° C. for 7 days. After 7 days, the vials are removed from the refrigerator. Evidence of crystal formation or precipitation in the compositions is examined.
(§1) Each formulation was prepared by combining urea and metronidazole in water (q.s 100%). The mixture was kept at a temperature of about 45° C. while stirring until dissolved. The solutions were permitted to cool to room temperature, packaged and sealed in glass vials. The stability tests described in Example 1 were performed and the test results were recorded.
as §1, with “combining N-2-hydroxyethyl” for “combining”, “45°C.” for “45° C.”
as §1, with “N-2-hydroxyethyl urea, urea,” for “urea”, “kept either at room temperature or” for “kept”, “recorded. […]” for “recorded.”

[2] = at 25 °C; cited from earlier work

Concentration required to obtain a stable aqueous solution of 1.0% metronidazole [1]: about 10%
Concentration of urea needed to obtain a stable aqueous solution of 1.0% metronidazole ([1]; concentration of N-2-hydroxyethyl urea is 1.0%): ≥ 8.0%
N-2-hydroxyethyl urea functionally equivalent to 1% urea in inducing the solubility enhancing effect ([1]; from Examples 2 and 3): about 1.6%
SMILES: NC(N)=O [urea]
Water solubility limit [2]: about 50 % by weight

Results from stability test ([1]; 1.0% N-2-hydroxyethyl urea, 7.0% urea, 1.0% metronidazole in water, 7 days at about 4 °C): Crystals
Results from stability test ([1]; 1.0% N-2-hydroxyethyl urea, 8.0% urea, 1.0% metronidazole in water, 7 days at about 4 °C): Clear
Results from stability test ([1]; 1.0% N-2-hydroxyethyl urea, 9.0% urea, 1.0% metronidazole in water, 7 days at about 4 °C): Clear
Results from stability test ([1]; 5.0% N-2-hydroxyethyl urea, 2.0% urea, 1.0% metronidazole in water, 7 days at about 4 °C): Clear
Results from stability test ([1]; 5.0% N-2-hydroxyethyl urea, 2.0% urea, 1.0% metronidazole in water, 7 days at about 4 °C, listed as metronidazole): stable
Results from stability test ([1]; 5.0% N-2-hydroxyethyl urea, 3.0% urea, 1.0% metronidazole in water, 7 days at about 4 °C): Clear
Results from stability test ([1]; 5.0% N-2-hydroxyethyl urea, 4.0% urea, 1.0% metronidazole in water, 7 days at about 4 °C): Clear
Results from stability test ([1]; 5.0% N-2-hydroxyethyl urea, 5.0% urea, 1.0% metronidazole in water, 7 days at about 4 °C): Clear
Results from stability test ([1]; 7% urea, 1.0% metronidazole in water, 24 h room temperature then 7 days at about 4 °C): Crystals formed
Results from stability test ([1]; 8.0% N-2-hydroxyethyl urea, 1.0% urea, 1.0% metronidazole in water, 7 days at about 4 °C): Crystals
Results from stability test ([1]; 8.0% N-2-hydroxyethyl urea, 8.0% urea, 1.2% metronidazole in water, 7 days at about 4 °C): Clear
Results from stability test ([1]; 8% urea, 1.0% metronidazole in water, 24 h room temperature then 7 days at about 4 °C): Crystals formed
Results from stability test ([1]; 9.0% N-2-hydroxyethyl urea, 1.0% urea, 1.0% metronidazole in water, 7 days at about 4 °C): Crystals
Results from stability test ([1]; 9% urea, 1.0% metronidazole in water, 24 h room temperature then 7 days at about 4 °C): Crystals formed
Results from stability test ([1]; 10.0% N-2-hydroxyethyl urea, 1.0% urea, 1.0% metronidazole in water, 7 days at about 4 °C): Clear
Results from stability test ([1]; 10% urea, 1.0% metronidazole in water, 24 h room temperature then 7 days at about 4 °C): Clear
Results from stability test ([1]; 13% N-2-hydroxyethyl urea, 1.0% metronidazole in water, 24 h room temperature then 7 days at about 4 °C): Crystals formed
Results from stability test ([1]; 14% N-2-hydroxyethyl urea, 1.0% metronidazole in water, 24 h room temperature then 7 days at about 4 °C): Crystals formed
Results from stability test ([1]; 15% N-2-hydroxyethyl urea, 1.0% metronidazole in water, 24 h room temperature then 7 days at about 4 °C): Crystals formed
Results from stability test ([1]; 16% N-2-hydroxyethyl urea, 1.0% metronidazole in water, 24 h room temperature then 7 days at about 4 °C): Clear
SMILES: Cc1ncc([N+](=O)[O-])n1CCO [Metronidazole, 1-(2-hydroxyethyl)-2-methyl-5-nitroimidazole]

Concentration required to obtain a stable aqueous solution of 1.0% metronidazole [1]: about 16%
Concentration of N-2-hydroxyethyl urea needed to obtain a stable aqueous solution of 1.0% metronidazole ([1]; concentration of urea is 1.0%): ≥ 9.0%
SMILES: NC(=O)NCCO [N-2-hydroxyethyl urea]
